Target: T1, BcPPNE (Bacillus cereus, UniProt Q74NK7)
T1 construct: gene BCE_A0238; weak tetramer in solution
T1 sequence (Q74NK7 1-195): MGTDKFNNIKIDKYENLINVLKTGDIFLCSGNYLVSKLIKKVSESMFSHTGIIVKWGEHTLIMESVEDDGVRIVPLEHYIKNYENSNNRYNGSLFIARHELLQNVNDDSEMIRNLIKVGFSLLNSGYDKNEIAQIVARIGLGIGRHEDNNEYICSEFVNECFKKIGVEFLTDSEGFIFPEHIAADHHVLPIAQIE
Assay: Thermofluor (thermal shift)
Assay type: binding
Conditions: no shift value printed

SMILES | Thermofluor (thermal shift) (crystals soaked at 1 mM showed no ligand density, L-Lys remained bound) | Thermofluor (thermal shift)
N[C@@H](COP(=O)(O)O)C(=O)O [O-phospho-L-serine] | Thermofluor experiments indicated that BcPPNE also binds L-arginine and O-phospho-L-serine | –
N=C(N)NCCC[C@H](N)C(=O)O [L-arginine] | – | Thermofluor experiments indicated that BcPPNE also binds L-arginine and O-phospho-L-serine

Source: publication PMC3142127, “Structural Analysis of Papain-Like NlpC/P60 Superfamily Enzymes with a Circularly Permuted Topology Reveals Potential Lipid Binding Sites” (PLoS ONE, 2011)
